Data: US20110190249A1, “THERAPEUTIC METHODS AND USES OF SAPOGENINS AND THEIR DERIVATIVES” (PHYTOPHARM PLC, priority 2002, published 2011)
Marks after values point to notes of the source that are not given here.

Assays:
[1] = tested on: rat primary cortical neurones; assay: Reversal of glutamate-induced neurodegeneration (LDH), treatment after glutamate exposure; assay type: cell-based; conditions: LDH after 24 h, control = 100
Experimental: (§1) Neuronal cell survival was evaluated by measuring lactate dehydrogenase (LDH) activity released in the media 24 h after test compound treatment or glutamate+test compound exposure, using the CytoTox 96 non-radioactive kit and quantitated by measuring wavelength absorbance at 450 nm.
As above mentioned, exposure of rat primary cortical cultures to glutamate (100 μM; 10 min) caused an increase in lactate dehydrogenase (LDH) activity measured after 24 h, indicating a significant neurodegeneration.

[2] = tested on: Sprague Dawley rats injected with amyloid β1-40 and ibotenic acid; assay: Step-through test in amyloid β + ibotenic acid rat model; assay type: in vivo; conditions: 18 mg/kg/day gastric tube, two months; errors in 5 min; model 4.00 ± 2.40, control 0.60 ± 0.70
Experimental: (§2) An in vivo model of Alzheimer's disease was used to model neurodegeneration. In this model the neurotoxic agents (amyloid β and ibotenic acid) are injected into the brain of the rat. This leads to neuronal loss, receptor loss and cognitive impairment. […] In addition the co-injection of amyloid β with a small amount of ibotenic acid into the rat hippocampus synergistically produces neuronal loss with infiltration of glial cells not only adjacent but also far from the injected site (Morimoto et al., 1998: Neuroscience, 84, 479-487).
(§3) Our studies used the method of Morimoto (Morimoto et al., 1998: Neuroscience, 84, 479-487) with some modifications (unilateral instead of bilateral injection). Three months old, Sprague Dawley rats, were randomly divided into different groups. Injection of amyloid β1-40 and ibotenic acid (both from Sigma) was accomplished by means of a stereotaxic instrument (Stoelting Co.) and the coordinates were AP=−0.5 mm […], L=−2.8 mm […], H=−7.0 mm (ventral to dura). The dose for each rat was amyloid β1-40 (4 μg) and ibotenic acid (1 μg) in 1 μl of saline. The injection was completed in 20 min, and the needle was withdrawn 10 min later. Then the skin was sutured.
(§4) The 8 groups were: • Operated control injected with normal saline (control) • Model (control injected with amyloid β+ibotenic acid) • Model+Episarsasapogenin cathylate (18 mg/kg/day)* • Model+Sarsasapogenin cathylate (18 mg/kg/day)* • Model+Episarsasapogenin ethylsuccinate (18 mg/kg/day) (comparison) • Model+Episarsasapogenin (18 mg/kg/day)* • Model+Epismilagenin (18 mg/kg/day)* • Model+Diosgenin (i.e. negative control, 18 mg/kg/day)
(§5) Episarsasapogenin cathylate, sarsasapogenin cathylate, episarsasapogenin ethylsuccinate (comparison compound), episarsasapogenin, epismilagenin and diosgenin (all at a dosage of 18 mg/kg/day) were administered to animals as stable suspensions in CMC—Na (0.5%) once daily through a gastric tube. The control and the model group were given the same volume of CMC—Na (0.5%) once daily. The drugs and vehicles were given for a period of two months, starting 20 days before operation.
Step-Through Test: learning and memory. The effect of test compounds on learning and memory was assessed using the step-through test. A 60×15×15 cm box, divided into 2 equally sized rooms, one dark room with copper rod base, which was electrically charged (40 V ac) when in use, while the other was a light room but not electrically charged. Between the two rooms there is an opening (hole) for the rat to go through. The experiment is carried out for each rat on two consecutive days. The first day is for training; when the rat is adapted in the box for the first 3 min, then put in the light room, with its back toward the hole, and the copper rods of the dark room are charged for 5 min. The second day is for testing, when the number of crosses in 5 min are recorded. Improvements in memory are signalled by a reduction in the number of crosses.

[3] = tested on: rat primary cortical neurones; assay: Prevention of glutamate-induced neurodegeneration (LDH release), pre-treatment; assay type: cell-based; conditions: 30 nM, given 24 h before glutamate; LDH 24 h after glutamate; control = 100
Experimental: The objective of this study was to examine the effects of sarsasapogenin, episarsasapogenin cathylate, episarsasapogenin, epismilagenin and smilagenin on the survival of rat primary cortical neurones exposed to glutamate, which is known to induce neuro degeneration.
Rat cortical neurones were cultured for 10 days; at day 10 the medium was changed to a serum-free defined medium. On day 12, 24 hours before glutamate exposure, cultures were washed and medium was replaced with fresh medium containing positive control (β-oestradiol), test compounds (sarsasapogenin, episarsasapogenin cathylate, episarsasapogenin, epismilagenin and smilagenin) or vehicle control (DMSO, 0.25%) or diosgenin as negative control.
On day 13, cultures were exposed to glutamate. After the incubation period, the cultures were washed with and placed in fresh medium, supplemented with relevant compounds or vehicle to evaluate their protective effects, 24 h after glutamate exposure.
as §1

[4] = tested on: muscarinic acetylcholine receptor; assay: Brain M receptor density (3H-QNB) in amyloid β + ibotenic acid rat model; assay type: in vivo; conditions: 18 mg/kg/day gastric tube, two months; model 713 ± 48, control 859 ± 101
Experimental: as §2, §3, §4, §5
Muscarinic acetylcholine receptor density was assessed. The brain samples were homogenised, centrifuged, and the pellet of centrifugation at 27000×g was re-homogenised and used for measurement. The concentration of ^3H-QNB was chosen at the saturation range. After incubation and separation, the bound portion was measured by liquid scintillation counter.

[5] = tested on: rat primary cortical neurones; assay: Neurite outgrowth in rat primary cortical neurones; assay type: cell-based; conditions: for Number of neurones displaying neurites, Mean ± s.e.m (%): control 47 ± 2; for Neurite length measured using optical micrometry, Mean ± s.e.m (%): control 100 ± 4
Text: Neurodegenerative disorders are characterised by a progressive loss of neurones and degradation of neuronal processes (neurites). Agents that induce neurite outgrowth may promote the formation of new connections between neurones and ameliorate the symptoms of neurodegenerative conditions (Katzman et al, Faseb J., 5, 278-286, 1991).

[6] = tested on: rat primary spinal motor neurones; assay: Glutamate-induced neurodegeneration in spinal motor neurones (LDH); assay type: cell-based; conditions: control 100 ± 1
Experimental: The objective of this study was to examine the effects of sarsasapogenin and smilagenin on the survival of rat primary spinal motor neurones exposed to glutamate, which is known to induce neurodegeneration in this model of motor neurodegeneration.
Rat motor neurones were prepared according to the method described by (Martinou et al, Neuron, 8, 737-744, 1992). On day 10, medium was removed and the cultures were exposed to glutamate (4 microM) for 10 min at 37° C. in defined medium. After the glutamate exposure, cultures were washed with Dulbecco modified Eagle medium at 37° C. then placed in fresh culture medium containing test compounds. After 48 h, the extent of spinal motor neurone degeneration was determined by measuring the amount of lactate dehydrogenase (LDH) released into the culture medium as above.

[7] = tested on: rat mesencephalic dopaminergic neurones; assay: Treatment of dopaminergic neurones after MPP+ exposure (survival, neurites); assay type: cell-based; conditions: treatment 0.03 nM; MPP+ 2 μM; MPP+ alone 76 ± 4
Text: Smilagenin and sarsasapogenin also reverse the neurodegeneration caused by exposure to the neurotoxin 1-methyl-4-phenylpyridinium (MPP^+) in rat mesencephalic dopaminergic neurones; a model of Parkinson's disease in vitro.
Glial cell line-derived neurotrophic factor (GDNF) and brain-derived neurotrophic factor (BDNF), molecules that are involved in neuronal growth, and 17β-oestradiol were used as positive controls. Treatment with smilagenin and sarsasapogenin produced a significant increase in the neuronal survival compared to neurones exposed to MPP^+ alone (Table 8).
Exposure to MPP^+ caused not only a significant decrease in dopaminergic number but also in the percentage of neurites.

[8] = 3 nM after glutamate 100 μM 10 min
[9] = 30 nM after glutamate 100 μM 10 min

## CC1CCC2(OC1)OC1CC3C4CCC5CC(OC(=O)CN)CCC5(C)C4CCC3(C)C1C2C.Cl (centres unmarked) [Smilagenin glycinate hydrochloride, smilagenin glycinate hydrochloride]
[1]; [8]
  Cortical neurones previously exposed to glutamate, Mean ± s.e.m (%): 117 ± 4%
[1]; [9]
  Cortical neurones previously exposed to glutamate, Mean ± s.e.m (%): 141 ± 6%

## C[C@@H]1CC[C@@]2(OC1)O[C@H]1C[C@H]3[C@@H]4CC=C5C[C@@H](O)CC[C@]5(C)[C@H]4CC[C@]3(C)[C@H]1[C@@H]2C [diosgenin, reference compound]
[2]
  Learning and memory Step through test Error No: 3.75 ± 1.49
[3]
  Prevention of glutamate-induced neurodegeneration, Mean ± s.e.m (%): 72 ± 4%
[1]; [9]
  Cortical neurones previously exposed to glutamate, Mean ± s.e.m (%): 49 ± 6%
[4]
  M receptor density: 770 ± 68 fmol/mg/protein

## C[C@]12CC[C@@H]3c4ccc(O)cc4CC[C@H]3[C@@H]1CC[C@@H]2O [17β-oestradiol, reference compound]
[5]; 0.3 pM
  Number of neurones displaying neurites, Mean ± s.e.m (%): 48 ± 2%
  Neurite length measured using optical micrometry, Mean ± s.e.m (%): 154 ± 5%
[5]; 3 pM
  Number of neurones displaying neurites, Mean ± s.e.m (%): 60 ± 2%
  Neurite length measured using optical micrometry, Mean ± s.e.m (%): 163 ± 4%
[5]; 30 pM
  Number of neurones displaying neurites, Mean ± s.e.m (%): 59 ± 2%
[1]; [8]
  Cortical neurones previously exposed to glutamate, Mean ± s.e.m (%): 69 ± 2%
[1]; [9]
  Cortical neurones previously exposed to glutamate, Mean ± s.e.m (%): 75 ± 5%
[6]; 300 nM for 48 h after glutamate 4 microM 10 min
  Glutamate-induced neurodegeneration in spinal motor neurones, Mean ± s.e.m (%): 116 + 6%
[7]
  Dopaminergic neurones after MPP+ exposure (survival), Mean ± s.e.m (%): 106 + 5%

## C[C@@H]1CC[C@@]2(OC1)O[C@H]1C[C@H]3[C@@H]4CC[C@@H]5C[C@H](O)CC[C@]5(C)[C@H]4CC[C@]3(C)[C@H]1[C@@H]2C [epismilagenin]
[2]
  Learning and memory Step through test Error No: 1.73 ± 0.91*
[3]
  Prevention of glutamate-induced neurodegeneration, Mean ± s.e.m (%): 79 ± 2%
[4]
  M receptor density: 877 ± 90* fmol/mg/protein

## C[C@H]1CC[C@@]2(OC1)O[C@H]1C[C@H]3[C@@H]4CC[C@@H]5C[C@H](O)CC[C@]5(C)[C@H]4CC[C@]3(C)[C@H]1[C@@H]2C [episarsasapogenin]
[2]
  Learning and memory Step through test Error No: 1.50 ± 1.18*
[3]
  Prevention of glutamate-induced neurodegeneration, Mean ± s.e.m (%): 88 ± 3%
[4]
  M receptor density: 869 ± 104* fmol/mg/protein

## CCOC(=O)CCC(=O)OC1CCC2(C)C(CCC3C2CCC2(C)C3CC3OC4(CCC(C)CO4)C(C)C32)C1 (centres unmarked) [Episarsasapogenin ethylsuccinate, episarsasapogenin ethylsuccinate, reference compound]
[2]
  Learning and memory Step through test Error No: 3.73 ± 1.35
[4]
  M receptor density: 774 ± 79 fmol/mg/protein

## CCOC(=O)OC1CCC2(C)C(CCC3C2CCC2(C)C3CC3OC4(CCC(C)CO4)C(C)C32)C1 (centres unmarked) [sarsasapogenin cathylate]
[2]
  Learning and memory Step through test Error No: 1.36 ± 1.03*
[4]
  M receptor density: 916 ± 158* fmol/mg/protein

## CC(C)CCC[C@@H](C)[C@H]1CC[C@H]2[C@@H]3CC[C@@H]4C[C@@H](O)CC[C@]4(C)[C@H]3CC[C@]12C [Coprosterol, coprosterol]
[1]; [8]
  Cortical neurones previously exposed to glutamate, Mean ± s.e.m (%): 126 ± 5%
[1]; [9]
  Cortical neurones previously exposed to glutamate, Mean ± s.e.m (%): 116 ± 4%

## C[C@@H]1CC[C@@]2(OC1)O[C@H]1C[C@H]3[C@@H]4CC[C@@H]5CC(=O)CC[C@]5(C)[C@H]4CC[C@]3(C)[C@H]1[C@@H]2C [Smilagenone, smilagenone]
[1]; [8]
  Cortical neurones previously exposed to glutamate, Mean ± s.e.m (%): 119 ± 7%
[1]; [9]
  Cortical neurones previously exposed to glutamate, Mean ± s.e.m (%): 119 ± 4%

## CC(C)CCC1OC2C[C@H]3[C@@H]4CC[C@@H]5C[C@@H](O)CC[C@]5(C)[C@H]4CC[C@]3(C)[C@H]2[C@@H]1C (stereo partly drawn) [16,22-epoxycoprostan-3β-ol]
[1]; [8]
  Cortical neurones previously exposed to glutamate, Mean ± s.e.m (%): 114 ± 7%
[1]; [9]
  Cortical neurones previously exposed to glutamate, Mean ± s.e.m (%): 134 ± 5%

B1: BDNF: brain-derived neurotrophic factor, positive control (protein, UniProt P23560 19-247, looked up)
Neurotrophic factor BDNF …: APMKEANIRGQGGLAYPGVRTHGTLESVNGPKAGSRGLTSLADTFEHVIEELLDEDQKVRPNEENNKDADLYTSRVMLSSQVPLEPPLLFLLEEYKNYLDAANMSMRVRRHSDPARRGELSVCDSISEWVTAADKKTAVDMSGGTVTVLEKVPVSKGQLKQYFYETKCNPMGYTKEGCRGIDKRHWNSQCRTTQSYVRALTMDSKKRIGWRFIRIDTSCVCTLTIKRGR
[6]; 3 nM for 48 h after glutamate 4 microM 10 min
  Glutamate-induced neurodegeneration in spinal motor neurones, Mean ± s.e.m (%): 148 ± 8%
